Results reported in the Kinase Knowledgebase extract (Sharma et al. 2016).

Experiments:
[1] = target: PIK3CA (human) (UniProt P42336); test: Inhibition of PIK3CA Kinase Activity
[2] = target: PIK3CA (human) (UniProt P42336); test: Inhibition of A2780 Cell Proliferation

PIK3CA (human), sequence (P42336 whole entry, looked up): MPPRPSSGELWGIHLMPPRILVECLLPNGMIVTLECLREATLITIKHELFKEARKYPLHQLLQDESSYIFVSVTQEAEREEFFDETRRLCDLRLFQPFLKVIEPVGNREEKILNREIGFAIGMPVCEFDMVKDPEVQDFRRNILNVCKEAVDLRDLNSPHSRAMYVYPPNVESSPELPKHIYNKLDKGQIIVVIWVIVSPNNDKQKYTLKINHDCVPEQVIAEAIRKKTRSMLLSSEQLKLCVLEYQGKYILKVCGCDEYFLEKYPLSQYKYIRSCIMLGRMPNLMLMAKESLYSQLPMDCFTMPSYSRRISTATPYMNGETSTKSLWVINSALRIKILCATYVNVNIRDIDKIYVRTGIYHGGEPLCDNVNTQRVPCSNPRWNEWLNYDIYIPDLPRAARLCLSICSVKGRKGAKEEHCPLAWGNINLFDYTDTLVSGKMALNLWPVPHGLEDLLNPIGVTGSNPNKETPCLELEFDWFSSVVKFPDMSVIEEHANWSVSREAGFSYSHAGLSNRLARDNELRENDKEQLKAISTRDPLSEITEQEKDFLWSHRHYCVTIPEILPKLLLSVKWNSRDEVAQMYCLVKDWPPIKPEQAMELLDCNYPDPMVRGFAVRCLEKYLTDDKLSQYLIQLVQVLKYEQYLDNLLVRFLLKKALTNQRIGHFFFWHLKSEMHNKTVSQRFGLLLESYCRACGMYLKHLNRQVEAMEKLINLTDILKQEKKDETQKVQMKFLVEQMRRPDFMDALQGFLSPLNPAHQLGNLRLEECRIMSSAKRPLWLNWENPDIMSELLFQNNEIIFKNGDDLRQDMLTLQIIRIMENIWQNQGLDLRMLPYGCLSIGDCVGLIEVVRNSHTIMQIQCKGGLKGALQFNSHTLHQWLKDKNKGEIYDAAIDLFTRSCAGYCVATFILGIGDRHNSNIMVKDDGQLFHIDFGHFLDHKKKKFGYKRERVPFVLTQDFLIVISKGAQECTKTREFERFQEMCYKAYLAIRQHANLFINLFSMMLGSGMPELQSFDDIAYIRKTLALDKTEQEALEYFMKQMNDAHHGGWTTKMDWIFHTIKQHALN

SMILES | IC50 [1] [nM] | EC50 [2] [µM]
Nc1ncc(-c2ccc3nc(NC(=O)c4ccc(-n5ccnc5)cc4)cn3c2)cc1C(F)(F)F | < 1000 | < 10
CC(C)(C)OC(=O)N1CCC[C@H]1C(=O)Nc1cn2nc(-c3cnc(N)c(C(F)(F)F)c3)ccc2n1 | < 1000 | < 25
Nc1ncc(-c2ccc3nc(NC(=O)C4CNC4)cn3c2)cc1C(F)(F)F | < 1000 | < 10
Nc1ncc(-c2ccc3nc(NC(=O)COCc4ccccc4)cn3n2)cc1C(F)(F)F | < 1000 | < 10
CC(=O)Nc1cn2cc(-c3cnc(N)c(C(=O)NCCNS(C)(=O)=O)n3)ccc2n1 | < 1000 | < 25
COCCCOc1nc(-c2ccc3nc(NC(C)=O)cn3c2)cnc1N | < 1000 | < 1
CC(=O)Nc1cn2cc(-c3cnc(N)c(C(=O)N4CCCC4)c3)ccc2n1 | < 1000 | < 25
Nc1ncc(-c2ccc3nc(NC(=O)CCCC(=O)O)cn3n2)cc1C(F)(F)F | < 1000 | < 25
CCN1CC[C@@H](OCC(=O)Nc2cn3cc(-c4cnc(N)c(C(F)(F)F)c4)ccc3n2)C1 | < 1000 | < 10
CC(=O)Nc1nc2ccc(-c3cnc(N)c(C(F)(F)F)c3)cn2c1-c1ccc(C(N)=O)cc1 | < 1000 | < 25
Nc1ncc(-c2ccc3nc(NC(=O)CO[C@H]4CCNC4)cn3n2)cc1C(F)(F)F | < 1000 | < 1
CC(=O)Nc1cn2cc(-c3cnc(N)c(-c4ccc(OC(F)(F)F)cc4)c3)ccc2n1 | < 1000 | < 1
NCCC(=O)Nc1cn2nc(-c3cnc(N)c(C(F)(F)F)c3)ccc2n1 | < 1000 | < 10
CCN(CC)Cc1cc(-c2ccc3nc(NC(C)=O)cn3n2)cnc1N | < 1000 | < 10
C/C=C/c1c(NC(C)=O)nc2ccc(-c3cnc(N)c(C(F)(F)F)c3)cn12 | < 1000 | < 10
C=Cc1c(NC(C)=O)nc2ccc(-c3cnc(N)c(C(F)(F)F)c3)cn12 | < 1000 | < 25
Nc1ncc(-c2ccc3nc(NC(=O)[C@H]4CCCN4)cn3n2)cc1C(F)(F)F | < 1000 | < 25
Nc1ncc(-c2ccc3nc(NC(=O)C4CNC4)cn3n2)cc1Cl | < 1000 | < 25
CC(=O)Nc1cn2cc(-c3cnc(N)c(Oc4cccnc4)n3)ccc2n1 | < 1000 | < 1
CC(=O)Nc1nc2ccc(-c3cnc(N)c(C(F)(F)F)c3)cn2c1C(N)=O | < 1000 | < 10
Nc1ncc(-c2ccc3nc(NC(=O)N4CCCC4C(F)(F)F)cn3c2)cc1C(F)(F)F (configuration not stated) | < 1000 | < 10

SMILES | IC50 [1] [nM] | EC50 [2] [µM]
Nc1ncc(-c2ccc3nc(NC(=O)[C@@H]4CCN4)cn3c2)cc1C(F)(F)F | < 1000 | < 10
COCC(=O)Nc1cn2nc(-c3cnc(N)c(C(F)(F)F)c3)ccc2n1 | < 1000 | < 1
COC(=O)Nc1cn2cc(-c3cnc(N)c(C(F)(F)F)c3)ccc2n1 | < 1000 | < 10
Nc1ncc(-c2ccc3nc(NC(=O)c4ccncc4)cn3c2)cc1C(F)(F)F | < 1000 | < 25
CC(=O)Nc1nc2ccc(-c3cnc(N)cc3C)cc2s1 | < 1000 | < 25
CC(=O)Nc1cn2nc(-c3cnc(N)c(-c4ccccc4OC(F)(F)F)c3)ccc2n1 | < 1000 | < 1
CC(=O)Nc1cn2cc(-c3cnc(N)c(C=NNc4ccccc4)c3)ccc2n1 | < 1000 | < 1
CNC(=O)Nc1nc2ccc(-c3ccc(N)nc3)cc2s1 | < 1000 | < 10
Nc1ncc(-c2ccc3nc(NC(=O)CCCN4CCOCC4)cn3c2)cc1C(F)(F)F | < 1000 | < 10
Nc1ncc(-c2ccc3nc(NC(=O)c4ccc(F)cc4)cn3c2)cc1C(F)(F)F | < 1000 | < 1
CC(=O)N1CCC[C@H]1C(=O)Nc1cn2cc(-c3cnc(N)c(Cl)c3)ccc2n1 | < 1000 | < 25
CC(=O)Nc1nc2ccc(-c3cnc(N)c(CN(C)C)c3)cc2s1 | < 1000 | < 10
CC(=O)Nc1cn2cc(-c3cnc(N)c(C(F)(F)F)c3)c(F)cc2n1 | < 1000 | < 25
Nc1ncc(-c2ccc3nc(NC(=O)c4cccc(F)c4)cn3c2)cc1C(F)(F)F | < 1000 | < 10
Nc1ncc(-c2ccc3nc(NC(=O)c4cccc(Cl)c4)cn3c2)cc1C(F)(F)F | < 1000 | < 10
COc1ccc(C#Cc2c(NC(C)=O)nc3ccc(-c4cnc(N)c(C(F)(F)F)c4)cn23)cc1 | < 1000 | < 10
Nc1ccc(C(=O)Nc2nc3ccc(-c4cnc(N)c(C(F)(F)F)c4)cc3s2)cn1 | < 1000 | < 1
C[C@@H](N)C(=O)Nc1cn2nc(-c3cnc(N)c(C(F)(F)F)c3)ccc2n1 | < 1000 | < 10
Nc1ncc(-c2ccc3nc(NC(=O)CN4CCCCC4)cn3n2)cc1C(F)(F)F | < 1000 | < 10
CC(=O)Nc1cn2cc(-c3cnc(N)c(C=O)c3)ccc2n1 | < 1000 | < 10
